From patent US9556190B2, “Piperidinyloxy lactone orexin receptor antagonists” (MERCK SHARP & DOHME CORP., priority 2013, dated 2017)

What was measured:
human orexin-2 receptor = human orexin-2 receptor (Homo sapiens (Human), UniProt O43614); experiment: FLIPR Ca2+ Flux Assay, CHO cells expressing orexin-2 receptor; format: cell-based; conditions: 70 pM Ala-6,12 orexin-A agonist, read-out: hOX2R FLIPR IC50
Description: The utility of the compounds in accordance with the present invention as orexin receptor OX1R and/or OX2R antagonists may be readily determined without undue experimentation by methodology well known in the art, including the “FLIPR Ca^2+ Flux Assay” (Okumura et al., Biochem. Biophys. Res. Comm. 280:976-981, 2001). In a typical experiment the OX1 and OX2 receptor antagonistic activity of the compounds of the present invention was determined in accordance with the following experimental method. For intracellular calcium measurements, Chinese hamster ovary (CHO) cells expressing the rat orexin-1 receptor or the human orexin-2 receptor, are grown in Iscove's modified DMEM containing 2 mM L-glutamine, […], 1% hypoxanthine-thymidine supplement, 100 U/ml penicillin, 100 μg/ml streptomycin and 10% heat-inactivated fetal calf serum (FCS). The cells are seeded at 20,000 cells/well into Becton-Dickinson black 384-well clear bottom sterile plates coated with poly-D-lysine. All reagents were from GIBCO-Invitrogen Corp. The seeded plates are incubated overnight at 37° C. and 5% CO2. Ala-6,12 human orexin-A as the agonist is prepared as a 1 mM stock solution in 1% bovine serum albumin (BSA) and diluted in assay buffer (HBSS containing 20 mM HEPES, 0.1% BSA and 2.5 mM probenecid, pH7.4) for use in the assay at a final concentration of 70 pM. Test compounds are prepared as 10 mM stock solution in DMSO, then diluted in 384-well plates, first in DMSO, then assay buffer. On the day of the assay, cells are washed 3 times with 100 μl assay buffer and then incubated for 60 min (37° C., 5% CO2) in 60 μl assay buffer containing 1 μM Fluo-4AM ester, 0.02% pluronic acid, and 1% BSA. The dye loading solution is then aspirated and cells are washed 3 times with 100 μl assay buffer. 30 μl of that same buffer is left in each well. Within the Fluorescent Imaging Plate Reader (FLIPR, Molecular Devices), test compounds are added to the plate in a volume of 25 μl, incubated for 5 min and finally 25 μl of agonist is added. Fluorescence is measured for each well at 1 second intervals for 5 minutes and the height of each fluorescence peak is compared to the height of the fluorescence peak induced by 70 pM Ala-6,12 orexin-A with buffer in place of antagonist. For each antagonist, IC50 value (the concentration of compound needed to inhibit 50% of the agonist response) is determined. Alternatively, compound potency can be assessed by a radioligand binding assay (described in Bergman et. al. Bioorg. Med. Chem. Lett. 2008, 18, 1425-1430) in which the inhibition constant (Ki) is determined in membranes prepared from CHO cells expressing either the OX1 or OX2 receptor. The intrinsic orexin receptor antagonist activity of a compound which may be used in the present invention may be determined by these assays.

hOX1R = hOX1R (Homo sapiens, UniProt O43613); experiment: FLIPR Ca2+ Flux Assay, CHO cells expressing orexin-1 receptor; format: cell-based; conditions: 70 pM Ala-6,12 orexin-A agonist

Chain of human orexin-2 receptor (O43614 whole entry): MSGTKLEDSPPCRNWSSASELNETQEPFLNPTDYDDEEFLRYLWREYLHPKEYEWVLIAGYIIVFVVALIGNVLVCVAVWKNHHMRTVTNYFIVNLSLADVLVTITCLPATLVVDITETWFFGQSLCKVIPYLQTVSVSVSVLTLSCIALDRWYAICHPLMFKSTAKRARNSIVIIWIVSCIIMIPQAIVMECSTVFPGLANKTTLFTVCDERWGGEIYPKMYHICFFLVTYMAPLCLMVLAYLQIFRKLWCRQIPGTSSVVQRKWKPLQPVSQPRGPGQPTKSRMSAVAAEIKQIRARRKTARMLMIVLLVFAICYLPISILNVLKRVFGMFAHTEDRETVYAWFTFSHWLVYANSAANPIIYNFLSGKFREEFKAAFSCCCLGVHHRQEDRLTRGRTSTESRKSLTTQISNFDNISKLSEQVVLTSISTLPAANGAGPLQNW

Structure (SMILES) | IC50 (human orexin-2 receptor) [nM] | IC50 (hOX1R) [nM]
Cc1nc(-c2cccc(F)c2C(=O)N2C[C@H](Oc3nccc4c3C(=O)OC4(C)C)CC[C@H]2C)no1 [Example 13, 4-{[(3R,6R)-1-{[2-fluoro-6-(5-methyl-1,2,4-oxadiazol-3-yl)phenyl]carbonyl}-6-methylpiperidin-3-yl]oxy}-1,1-dimethylfuro[3,4-c]pyridin-3(1H)-one] | 65 | ≥ 10000
C[C@@H]1CC[C@@H](Oc2nccc3c2COC3=O)CN1C(=O)c1ccc(F)cc1-n1nccn1 [Example 32, 4-{[(3R,6R)-1-{[4-fluoro-2-(2H-1,2,3-triazol-2-yl)phenyl]-carbonyl}-6-methyl-piperidin-3-yl]oxy}furo[3,4-c]pyridin-1(3H)-one] | 15 | 8290
